Reference: paper PMC9143880, “Improving Antimicrobial Activity and Physico-Chemical Properties by Isosteric Replacement of 2-Aminothiazole with 2-Aminooxazole” (Pharmaceuticals, 2022)
pIC50: −log10 of the molar value. In brackets after ≈: the same amount, converted by molar mass. Like-named read-outs stand apart in the source and are kept apart here.

Key:
Escherichia coli FabH = test system: Escherichia coli FabH; set-up: method as in PMID 24561667; details: cited from earlier work
G+ and G- bacteria = test system: G+ and G- bacteria; set-up: method as in PMID 24561667; details: whole cell, cited from earlier work
[1] = test system: Pseudomonas aeruginosa CCM 3955 (ATCC 27853); test: Antibacterial microdilution broth (EUCAST); assay type: cell-based; details: for MIC PA: 72h incubation; for MIC: Pseudomonas aeruginosa, internal quality control, 24 h
[2] = test system: Candida tropicalis CCM 8264 (ATCC 750); test: Antifungal microdilution broth (EUCAST); details: 24h incubation
[3] = test system: M. kansasii DSM 44162 (ATCC 12478); test: Antimycobacterial MIC, microdilution broth / resazurin; assay type: cell-based; details: Mycobacterium kansasii; resazurin after 96 h; read-out: MIC M. kansasii
[4] = test system: Escherichia coli CCM 3954 (ATCC 25922); test: Antibacterial microdilution broth (EUCAST); assay type: cell-based; details: for MIC EC: 24h incubation; for MIC: Escherichia coli, internal quality control, 24 h
[5] = test system: Staphylococcus aureus subsp. aureus CCM 4223 (ATCC 29213); test: Antibacterial microdilution broth (EUCAST); assay type: cell-based; details: for MIC SA: 24h incubation; for MIC: Staphylococcus aureus, internal quality control, 24 h
[6] = RP-UHPLC lipophilicity parameter log k’w; assay type: physicochemical; details: for log k’w: RP-UHPLC, acetonitrile/water, log k extrapolated to 0% acetonitrile; for logkw: experimental lipophilicity parameter
Procedure, shortened: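 Retention was measured once per eluent composition: subtype I at 40/45/50% and subtype II at 20/30/40% acetonitrile in water, isocratic RP-UHPLC. log k values from these runs gave the lipophilicity index log k’w.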

[7] = test system: Candida albicans CCM 8320 (ATCC 24433); test: Antifungal microdilution broth (EUCAST); details: 24h incubation
[8] = test system: Aspergillus fumigatus ATCC 204305; test: Antifungal microdilution broth (EUCAST); details: 24h incubation
[9] = test system: M. smegmatis DSM 43465 (ATCC 607); test: Antimycobacterial MIC, microdilution broth / resazurin; assay type: cell-based; details: Mycolicibacterium smegmatis; resazurin after 48 h; read-out: MIC M. smegmatis
[10] = test system: Candida parapsilosis CCM 8260 (ATCC 22019); test: Antifungal microdilution broth (EUCAST); details: 24h incubation
[11] = test system: Trichophyton interdigitale CCM 8377 (ATCC 9533); test: Antifungal microdilution broth (EUCAST); details: 72h incubation
[12] = test system: Staphylococcus epidermidis CCM 4418 (ATCC 12228); test: Antibacterial microdilution broth (EUCAST); assay type: cell-based; details: for MIC SE: 24h incubation; for MIC: Staphylococcus epidermidis, internal quality control, 24 h
[13] = test system: Aspergillus flavus CCM 8363; test: Antifungal microdilution broth (EUCAST); details: 24h incubation
[14] = test system: Enterococcus faecalis CCM 4224 (ATCC 29212); test: Antibacterial microdilution broth (EUCAST); assay type: cell-based; details: for MIC EF: 24h incubation; for MIC: Enterococcus faecalis, internal quality control, 24 h
[15] = test system: Acinetobacter baumannii DSM 30007 (ATCC 19606); test: Antibacterial microdilution broth (EUCAST); assay type: cell-based; details: for MIC AB: 24h incubation; for MIC: Acinetobacter baumannii, internal quality control, 24 h
[16] = test system: Candida krusei CCM 8271 (ATCC 6258); test: Antifungal microdilution broth (EUCAST); details: 24h incubation
[17] = test system: Mycobacterium tuberculosis H37Ra ITM-M006710 (ATCC 9431); set-up: method as in PMID 30108959; details: cited from earlier work
[18] = test system: Staphylococcus aureus subsp. aureus (MRSA) CCM 4750 (ATCC 43300); test: Antibacterial microdilution broth (EUCAST); assay type: cell-based; details: for MIC MRSA: 24h incubation; for MIC: Staphylococcus aureus, internal quality control, 24 h
[19] = test system: Lichtheimia corymbifera CCM 8077; test: Antifungal microdilution broth (EUCAST); details: 24h incubation
[20] = test system: M. avium DSM 44156 (ATCC 25291); test: Antimycobacterial MIC, microdilution broth / resazurin; assay type: cell-based, Mycobacterium avium; details: Mycobacterium avium; resazurin after 96 h; read-out: MIC M. avium
[21] = test system: Klebsiella pneumoniae CCM 4415 (ATCC 10031); test: Antibacterial microdilution broth (EUCAST); assay type: cell-based; details: internal quality control, 24 h
[22] = 95% growth inhibition, 530 nm, read-out: MIC (spectrophotometric detection)
[23] = naked eye, read-out: MIC (visual detection)

Question: With `O=C(Nc1nc(-c2ccc(Br)cc2)cs1)c1cccc(Cl)c1` [C] as the molecule, how does the pIC50 (Escherichia coli FabH) read?
Answer: Its pIC50 is 5.03.

Question: And the MIC (G+ and G- bacteria; recalculated to µM)?
Answer: The MIC was 7.9 to 31.8 µM.

Question: And the MIC (G+ and G- bacteria)?
Answer: Its MIC is 3.13 to 12.5 µg/mL.

Question: With `O=C(Nc1nc(-c2ccccc2)cs1)c1cnccn1` [Compound 17a] as the molecule, how does the “MIC PA” value [1] read?
Answer: Its value is “insoluble”.

Question: And the “MIC CT” value [2]?
Answer: The value was “insoluble”.

Question: What about the MIC [3] of the same molecule?
Answer: The MIC was > 50 µg/mL.

Question: What about the “MIC EC” value [4] of the same molecule?
Answer: The value was “insoluble”.

Question: And the “MIC SA” value [5]?
Answer: Its value is “insoluble”.

Question: And the “log k’w” value [6]?
Answer: The value was 2.365.

Question: What about the logkw [6] of the same molecule?
Answer: Its logkw is 2.365.

Question: And the “MIC CA” value [7]?
Answer: The value was “insoluble”.

Question: What about the “MIC AF” value [8] of the same molecule?
Answer: The value was “insoluble”.

Question: And the MIC [9]?
Answer: The MIC was > 250 µg/mL.

Question: And the “MIC CP” value [10]?
Answer: Its value is “insoluble”.

Question: And the “MIC TI” value [11]?
Answer: The value was “insoluble”.

Question: And the “MIC SE” value [12]?
Answer: Its value is “insoluble”.

Question: What about the “MIC AFla” value [13] of the same molecule?
Answer: The value was “insoluble”.

Question: And the “MIC EF” value [14]?
Answer: Its value is “insoluble”.

Question: And the “MIC AB” value [15]?
Answer: The value was “insoluble”.

Question: And the “MIC CK” value [16]?
Answer: Its value is “insoluble”.

Question: What about the “Mtb H37Ra MIC” value [17] of the same molecule?
Answer: The value was >50 [11] µg/mL.

Question: And the “MIC MRSA” value [18]?
Answer: The value was “insoluble”.

Question: And the “MIC LC” value [19]?
Answer: Its value is “insoluble”.

Question: For `O=C(Nc1nc(-c2ccccc2)cs1)c1cnc(Cl)cn1` [Compound 18a], which MIC [20] is on record?
Answer: The MIC was > 100 µg/mL.

Question: And the “MIC PA” value [1]?
Answer: Its value is “insoluble”.

Question: And the “MIC CT” value [2]?
Answer: Its value is “insoluble”.

Question: What about the MIC [3] of the same molecule?
Answer: Its MIC is > 100 µg/mL.

Question: And the “MIC EC” value [4]?
Answer: Its value is “insoluble”.

Question: And the “MIC SA” value [5]?
Answer: Its value is “insoluble”.

Question: And the “log k’w” value [6]?
Answer: Its value is 3.173.

Question: And the logkw [6]?
Answer: Its logkw is 3.173.

Question: And the “MIC CA” value [7]?
Answer: Its value is “insoluble”.

Question: What about the “MIC AF” value [8] of the same molecule?
Answer: Its value is “insoluble”.

Question: What about the MIC [9] of the same molecule?
Answer: The MIC was > 500 µg/mL.

Question: And the “MIC CP” value [10]?
Answer: The value was “insoluble”.

Question: And the “MIC TI” value [11]?
Answer: The value was “insoluble”.

Question: And the “MIC SE” value [12]?
Answer: The value was “insoluble”.

Question: And the “MIC AFla” value [13]?
Answer: The value was “insoluble”.

Question: What about the “MIC EF” value [14] of the same molecule?
Answer: Its value is “insoluble”.

Question: What about the “MIC AB” value [15] of the same molecule?
Answer: Its value is “insoluble”.

Question: What about the “MIC CK” value [16] of the same molecule?
Answer: The value was “insoluble”.

Question: What about the “Mtb H37Ra MIC” value [17] of the same molecule?
Answer: The value was >100 [11] µg/mL.

Question: And the “MIC MRSA” value [18]?
Answer: Its value is “insoluble”.

Question: What about the “MIC LC” value [19] of the same molecule?
Answer: The value was “insoluble”.

Question: With `CNC(C)C1CCC(N)C(OC2C(N)CC(N)C(OC3OCC(C)(O)C(NC)C3O)C2O)O1` (stereo not drawn) [gentamicin, reference compound] as the molecule, how does the MIC [21, 22] read?
Answer: Its MIC is 0.5 µg/mL (≈ 1.05 µM).

Question: And the MIC [21, 23]?
Answer: The MIC was 0.5 µg/mL (≈ 1.05 µM).

Question: What about the MIC [1, 22] of the same molecule?
Answer: The MIC was 0.5 µg/mL (≈ 1.05 µM).

Question: And the MIC [1, 23]?
Answer: Its MIC is 0.5 µg/mL (≈ 1.05 µM).

Question: What about the MIC [4, 22] of the same molecule?
Answer: Its MIC is 1 µg/mL (≈ 2.09 µM).

Question: And the MIC [4, 23]?
Answer: The MIC was 1 µg/mL (≈ 2.09 µM).

Question: What about the MIC [5, 22] of the same molecule?
Answer: Its MIC is 1 µg/mL (≈ 2.09 µM).

Question: And the MIC [5, 23]?
Answer: Its MIC is 0.5 µg/mL (≈ 1.05 µM).

Question: And the MIC [12, 22]?
Answer: The MIC was 0.0625 µg/mL (≈ 0.131 µM).

Question: And the MIC [12, 23]?
Answer: The MIC was 0.0625 µg/mL (≈ 0.131 µM).

Question: What about the MIC [14, 22] of the same molecule?
Answer: The MIC was > 8 µg/mL.

Question: And the MIC [14, 23]?
Answer: Its MIC is > 8 µg/mL.

Question: What about the MIC [15, 22] of the same molecule?
Answer: The MIC was 8 µg/mL (≈ 16.8 µM).

Question: And the MIC [15, 23]?
Answer: Its MIC is 8 µg/mL (≈ 16.8 µM).

Question: And the MIC [18, 22]?
Answer: The MIC was > 8 µg/mL.

Question: And the MIC [18, 23]?
Answer: Its MIC is > 8 µg/mL.
